The values that follow come from patent US7449463B2, “Morpholinyl containing benzimidazoles as inhibitors of respiratory syncytial virus replication” (Tibotec Pharmaceuticals Ltd., priority 2003, dated 2008).

What is called EC50 is the concentration that produces a half-maximal response. A lower EC50 goes with higher potency in that assay.

One experiment concerns Respiratory Syncytial Virus. As to the kind of experiment: microbe, parasite or virus in culture. Conditions: RSV-infected HeLa cells, MTT readout seven days after infection; −log of EC50 in molar units. In kind it is cell-based. An excerpt:
In vitro Screening for Activity against Respiratory Syncytial Virus.
The percent protection against cytopathology caused by viruses (antiviral activity or EC50) achieved by tested compounds and their cytotoxicity (CC50) are both calculated from dose-response curves. The selectivity of the antiviral effect is represented by the selectivity index (SI), calculated by dividing the CC50 (cytotoxic dose for 50% of the cells) by the EC50 (antiviral activity for 50% of the cells).
Automated tetrazolium-based colorimetric assays were used for determination of EC50 and CC50 of test compounds. Flat-bottom, 96-well plastic microtiter trays were filled with 180 μl of Eagle's Basal Medium, supplemented with 5% FCS (0% for FLU) and 20 mM Hepes buffer. Subsequently, stock solutions (7.8× final test concentration) of compounds were added in 45 μl volumes to a series of triplicate wells so as to allow simultaneous evaluation of their effects on virus- and mock-infected cells. Five five-fold dilutions were made directly in the microtiter trays using a robot system. Untreated virus controls, and HeLa cell controls were included in each test. Approximately 100 TCID50 of Respiratory Syncytial Virus was added to two of the three rows in a volume of 50 μl. The same volume of medium was added to the third row to measure the cytotoxicity of the compounds at the same concentrations as those used to measure the antiviral activity. After two hours of incubation, a suspension (4×10^5 cells/ml) of HeLa cells was added to all wells in a volume of 50 μl. The cultures were incubated at 37° C. in a 5% CO2 atmosphere. Seven days after infection the cytotoxicity and the antiviral activity was examined spectrophotometrically. To each well of the microtiter tray, 25 μl of a solution of MTT (3-(4,5-dimethylthiazol-2-yl)-2,5-diphenyltetrazolium bromide) was added. The trays were further incubated at 37° C. for 2 hours, after which the medium was removed from each cup. Solubilization of the formazan crystals was achieved by adding 100 μl 2-propanol. Complete dissolution of the formazan crystals were obtained after the trays have been placed on a plate shaker for 10 min. Finally, the absorbances were read in an eight-channel computer-controlled photometer (Multiskan MCC, Flow Laboratories) at two wavelengths (540 and 690 nm). The absorbance measured at 690 nm was automatically subtracted from the absorbance at 540 nm, so as to eliminate the effects of non-specific absorption.
For “2-[5,7-dimethyl-2-(2-morpholin-4-ylethyl-piperidin-4-ylamino)-benzoindazol-1-ylmethyl]-6-methyl-pyridin-3-ol [Compound 162]”, the Activity worked out at 7.9.
Still for that read-out and setting: under `Cc1ccc(O)c(Cn2c(NCCCN3CCOCC3)nc3ccc(CNc4cc(C#N)ccc4CCO)cc32)n1` [Compound 1] stands 10; under `Cc1ccc(O)c(Cn2c(NCCCN3CCOCC3)nc3ccc(CNc4cc(Br)ccc4CCCO)cc32)n1` [Compound 2], 10.
Still for that read-out and setting: then `Cc1ccc(O)c(Cn2c(NCCCN3CCOCC3)nc3ccc(CNc4cc(Cl)ccc4CCCO)cc32)n1` [Compound 4], with 9.9; and `Cc1ccc(OCCO)c(NCc2ccc3nc(NCCCN4CCOCC4)n(Cc4nc(C)ccc4O)c3c2)c1` [Compound 5], with 9.8.
Same read-out and setting: under `C=Cc1ccc(CCO)c(NCc2ccc3nc(NCCCN4CCOCC4)n(Cc4nc(C)ccc4O)c3c2)c1` [Compound 6] stands over 9.6; under `Cc1ccc(CCO)c(NCc2ccc3nc(NCCCN4CCOCC4)n(Cc4nc(C)ccc4O)c3c2)c1` [Compound 7], 9.6; under `COc1ccc(CCO)c(NCc2ccc3nc(NCCCN4CCOCC4)n(Cc4nc(C)ccc4O)c3c2)c1` [Compound 9], 9.6.
Regarding `C#Cc1ccc(CCO)c(NCc2ccc3nc(NCCCN4CCOCC4)n(Cc4nc(C)ccc4O)c3c2)c1` [Compound 10], the Activity came to 9.6.
Same read-out and setting: then `Cc1ccc(O)c(Cn2c(NCCCN3CCOCC3)nc3ccc(CNc4cc(Br)ccc4CCO)cc32)n1` [Compound 11], with 9.6.
Same read-out and setting: under `Cc1ccc(O)c(Cn2c(NCCCN3CCOCC3)nc3ccc(CNc4cc(C(F)(F)F)ccc4CCCO)cc32)n1` [Compound 13] stands 9.5; under `COc1ccc(CCCO)c(NCc2ccc3nc(NCCCN4CCOCC4)n(Cc4nc(C)ccc4O)c3c2)c1` [Compound 14], 9.4; under `Cc1ccc(CCC(C)O)c(NCc2ccc3nc(NCCCN4CCOCC4)n(Cc4nc(C)ccc4O)c3c2)c1` (centres unmarked) [Compound 15], 9.3.
Still for that read-out and setting: under `Cc1ccc(CCC(N)=O)c(NCc2ccc3nc(NCCCN4CCOCC4)n(Cc4nc(C)ccc4O)c3c2)c1` [Compound 16] stands 9.3; under `Cc1ccc(O)c(Cn2c(NCCCN3CCOCC3)nc3ccc(CNc4cc(C(C)C)ccc4CCO)cc32)n1` [Compound 17], 9.3; under `Cc1ccc(O)c(Cn2c(NCCCN3CCOCC3)nc3ccc(CNc4cc(F)ccc4CCO)cc32)n1` [Compound 18], 9.6.
`Cc1ccc(C=CCO)c(NCc2ccc3nc(NCCCN4CCOCC4)n(Cc4nc(C)ccc4O)c3c2)c1` [Compound 19]: the Activity is 9.3.
In the case of `Cc1ccc(CCCCO)c(NCc2ccc3nc(NCCCN4CCOCC4)n(Cc4nc(C)ccc4O)c3c2)c1` [Compound 20], the Activity worked out at 9.2.
The same measure, in the same setting: under `Cc1ccc(O)c(Cn2c(NCCCN3CCOCC3)nc3ccc(CNc4ccccc4CCO)cc32)n1` [Compound 22] stands 9.1.
The same measure, in the same setting: then `Cc1ccc(O)c(Cn2c(NCCCN3CCOCC3)nc3ccc(CNc4cccc(C)c4CCO)cc32)n1` [Compound 25], with 8.9; and `Cc1ccc(O)c(Cn2c(NCCCN3CCOCC3)nc3ccc(CNc4cccc(Br)c4)cc32)n1` [Compound 26], with 8.7.
The same measure, in the same setting: then `Cc1ccc(O)c(Cn2c(NCCCN3CCOCC3)nc3ccc(CNc4ccccc4C#N)cc32)n1` [Compound 27], with 8.7; and `Cc1cccc(NCc2ccc3nc(NCCCN4CCOCC4)n(Cc4nc(C)ccc4O)c3c2)c1` [Compound 28], with 8.6.
Consider `Cc1ccc(O)c(Cn2c(NCCCN3CCOCC3)nc3ccc(CNc4ccccc4CO)cc32)n1` [Compound 29], for which the Activity was 8.6.
Same read-out and setting: then `C#Cc1cccc(NCc2ccc3nc(NCCCN4CCOCC4)n(Cc4nc(C)ccc4O)c3c2)c1` [Compound 30], with 8.6; and `Cc1ccc(O)c(Cn2c(NCCCN3CCOCC3)nc3ccc(CNc4cccc(Cl)c4)cc32)n1` [Compound 31], with 8.6.
As for `Cc1ccc(O)c(Cn2c(NCCCN3CCOCC3)nc3ccc(CNc4ccccc4CCC(N)=O)cc32)n1` [Compound 33], the Activity is given as 8.6.
`Cc1ccc(C#CCO)c(NCc2ccc3nc(NCCCN4CCOCC4)n(Cc4nc(C)ccc4O)c3c2)c1` [Compound 34, 2-[6-{[2-(3-Hydroxy-prop-1-ynyl)-5-methyl-phenylamino]-methyl}-2-(3-morpholin-4-yl-propylamino)-benzoimidazol-1-ylmethyl]-6-methyl-pyridin-3-ol] came in with an Activity of 8.6.
The same measure, in the same setting: then `Cc1ccc(O)c(Cn2c(NCCCN3CCOCC3)nc3ccc(CNc4cccc(F)c4)cc32)n1` [Compound 35], with 8.5; and `Cc1ccc(O)c(Cn2c(NCCCN3CCOCC3)nc3ccc(CNc4cccc(OC(F)(F)F)c4)cc32)n1` [Compound 36], with 8.5; and `Cc1ccc(O)c(Cn2c(NCCCN3CCOCC3)nc3ccc(CNc4ccc(S(N)(=O)=O)cc4)cc32)n1` [Compound 37], with 8.5.
Same read-out and setting: then `Cc1ccc(O)c(Cn2c(NCCCN3CCOCC3)nc3ccc(CNc4ccc(C(N)=O)cc4)cc32)n1` [Compound 38], with 8.5; and `Cc1ccc(NCCO)c(NCc2ccc3nc(NCCCN4CCOCC4)n(Cc4nc(C)ccc4O)c3c2)c1` [Compound 39], with 8.5; and `Cc1ccc(C)c(NCc2ccc3nc(NCCCN4CCOCC4)n(Cc4nc(C)ccc4O)c3c2)c1` [Compound 40], with 8.4.
Still for that read-out and setting: under `CCc1ccccc1NCc1ccc2nc(NCCCN3CCOCC3)n(Cc3nc(C)ccc3O)c2c1` [Compound 41] stands 8.3; under `Cc1ccc(O)c(Cn2c(NCCCN3CCOCC3)nc3ccc(CNc4ccccc4CCN4CCOCC4)cc32)n1` [Compound 42], 8.3; under `Cc1ccc(O)c(Cn2c(NCCCN3CCOCC3)nc3ccc(CNc4cccc(C)c4CO)cc32)n1` [Compound 43], 8.2.
Take `Cc1ccc(O)c(Cn2c(NCCCN3CCOCC3)nc3ccc(CNc4cc(C(N)=O)ccc4CCO)cc32)n1` [Compound 44]: the Activity is 8.1.
On the same count and under the same terms, under `Cc1ccc(O)c(Cn2c(NCCCN3CCOCC3)nc3ccc(CNc4ccccc4C(N)=O)cc32)n1` [Compound 45] stands 7.9; under `Cc1ccc(O)c(Cn2c(NCCCN3CCOCC3)nc3ccc(CNc4cccc(CCO)c4)cc32)n1` [Compound 47], 7.9; under `Cc1cc(C)cc(NCc2ccc3c(c2)nc(NCCCN2CCOCC2)n3Cc2nc(C)ccc2O)c1` [Compound 51], 7.2.
Still for that read-out and setting: under `Cc1ccc(O)c(Cn2c(NCCCN3CCOCC3)nc3ccc(CO)cc32)n1` [Compound 52] stands 7.2.
On the same count and under the same terms, under `Cc1ccc(O)c(Cn2c(NCCCN3CCOCC3)nc3cc(CO)ccc32)n1` [Compound 53] stands 5.6; under `Cc1cc(C)cc(N(CCCCO)Cc2ccc3nc(NCCCN4CCOCC4)n(Cc4nc(C)ccc4O)c3c2)c1` [Compound 61], 9.5.
As for `Cc1cc(C)cc(N(CCCO)Cc2ccc3nc(NCCCN4CCOCC4)n(Cc4nc(C)ccc4O)c3c2)c1` [Compound 63], the Activity is listed as 9.3.
On the same count and under the same terms, then `Cc1cc(C)cc(N(CCCCCO)Cc2ccc3nc(NCCCN4CCOCC4)n(Cc4nc(C)ccc4O)c3c2)c1` [Compound 64], with 9.3; and `Cc1cc(C)cc(N(CCC(=O)O)Cc2ccc3nc(NCCCN4CCOCC4)n(Cc4nc(C)ccc4O)c3c2)c1` [Compound 69], with 8.7.
Still for that read-out and setting: under `Cc1cc(C)cc(N(Cc2ccc3nc(NCCCN4CCOCC4)n(Cc4nc(C)ccc4O)c3c2)Cc2c[nH]cn2)c1` [Compound 81] stands 8.9; under `COCCN(Cc1ccc2nc(NCCCN3CCOCC3)n(Cc3nc(C)ccc3O)c2c1)c1cc(C)cc(C)c1` [Compound 82], 8.6; under `Cc1ccc(O)c(Cn2c(NCCCN3CCOCC3)nc3ccc(CN(CCO)c4cccc(Br)c4)cc32)n1` [Compound 85], 9.3.
On the same count and under the same terms, then `Cc1cccc(N(CCO)Cc2ccc3nc(NCCCN4CCOCC4)n(Cc4nc(C)ccc4O)c3c2)c1` [Compound 86], with 9.3.

The experiment is the same for the next values; noted with them: human respiratory syncytial virus, 168 h; RSV-infected HeLa cells, MTT readout seven days after infection; −log of EC50 in molar units.
Consider `Cc1ccc(O)c(Cn2c(NCCCN3CCOCC3)nc3ccc(CNc4cc(S(C)(=O)=O)ccc4CCO)cc32)n1` [Compound 48], for which the response was half-maximal at 20 nM (EC50).

The same experiment, now with this note: pEC50 (−log of EC50 when expressed in molar units), protection against RSV cytopathology.
“4-{(3,5-Dimethyl-phenyl)-[3-(3-hydroxy-pyridin-2-ylmethyl)-2-(3-morpholin-4-yl-propylamino)-3H-benzoimidazol-5-ylmethyl]-amino}-butyramide [Compound 228]” came in with an Activity of 8.4.
